This note sets out measurements from patent publication US20180228722A1, “UNIT DOSE PACKAGES, COMPOSITIONS, AND TREATMENT REGIMENS TO DELIVER PRO-[…] S[…] KERATIN SURFACES” (ELC Management LLC, priority 2015, published 2018).

In test [1] the test system is human neutrophils. Nature of the test: Release of Pro-Resolving Lipid Mediator Markers (15-HETE, 12-HETE, 14-HDOHE, 18-HEPE, 17-HDOHE) from PMA/A23187-stimulated neutrophils, LC-MS/MS of supernatants. In kind it is cell-based. The procedure:
(§1) Ingredients were tested to assess the ability to promote Pro-Resolution Pathway Stimulators in human neutrophils. The following Inflammatory Metabolites were measured: PGE2 and LTB4. The Inflammatory Metabolite Marker, 5-HETE, was measured. Also measured were the Pro-Resolving Lipid Mediator Markers 15-HETE, 12-HETE, 14-HDOHE, 18-HEPE, and 17-HDOHE. PGE2, LTB4, and 5-HETE are indicators of inflammation. Increases in cellular secretion of PGE2, LTB4, or 5-HETE are seen in response to inflammation precipitating conditions. Active ingredients that cause a reduction in cellular concentration of PGE2, LTB4, or 5-HETE are anti-inflammatory in nature. Cellular secretion of Pro-Resolving Lipid Mediators occurs in the inflammation resolution phase. Active ingredients that stimulate cellular secretion of Pro-Resolving Lipid Mediators (as measured by measuring Pro-Resolving Lipid Mediator Markers) help to promote resolution of inflammation.
(§2) Then, the inflammatory response was initiated by adding an inflammation precipitating ingredient, in particular PMA/[…] which is a mixture of 5-(methylamino)-2-({2R,3R,6S,8S,9R,11R)-3,9,11-trimethyl-8-[(1S)-1-methyl-2-oxo-2-(1H-pyrrol-2-yl)ethyl]-1,7-dioxaspiro[5.5]undec-2-yl}methyl)-1,3-benzoxazole-4-carboxylic acid and PMA (phorbol myristate acetate), at a concentration of 0.05 μm and 1 μm respectively to each well. After one hour the supernatants were collected and stored at −80° C. until assayed.
(§3) Cell supernatants were assayed for Inflammatory Metabolites (PGE2, LBT4), Inflammatory Metabolite Markers (5-HETE), and Pro-Resolving Lipid Mediator Markers 15-HETE, 12-HETE, 14-HDOHE, 18-HEPE, and 17-HDOHE. More specifically, analysis was performed by extraction using an Oasis HLB 96-well plate (Waters) according to manufacturer's directions.
(§4) Suitable Pro-Resolving Activators are ingredients that show an increase in cellular concentration of Pro-Resolving Lipid Mediator Markers 15-HETE, 12-HETE, 14-HDOHE, 18-HEPE, and 17-HDOHE alone or in combination, when cells exposed to an inflammation precipitating condition either before or after exposure to the active.

For test [2], the system named is human neutrophils. Nature of the test: Release of Inflammatory Metabolites (PGE2, LTB4) and Inflammatory Metabolite Marker (5-HETE) from PMA/A23187-stimulated neutrophils, LC-MS/MS of supernatants. In kind it is cell-based. As to conditions: for decrease in Inflammatory Metabolites and Inflammatory Metabolite Markers (aggregate): vs control cells exposed to inflammation precipitating condition; for net decrease in cellular concentration of Inflammatory Metabolites and Inflammatory Metabolite Markers (aggregate): vs control cells subjected only to inflammation precipitating condition; for decrease in cellular concentration of 5-HETE / decrease in cellular concentration of LTB4 / decrease in cellular concentration of PGE2: vs PMA/A23187 control. The procedure:
as §1, §2, §3, §4

For the molecule `Oc1ccc(C=Cc2cc(O)cc(O)c2)cc1` [resveratrol], the “% change of Pro-Resolving Lipid Mediator Markers, in the aggregate, compared to control” value is −27% with human neutrophils [1] (0.1 ug/ml), −16% in the test with human neutrophils [1] (1 ug/ml) and −10% in the test on human neutrophils [1] (10 ug/ml). The “decrease in Inflammatory Metabolites and Inflammatory Metabolite Markers (aggregate)” value with human neutrophils [2] (0.1 ug/ml) is reported as 45%; in the test with human neutrophils [2] (1 ug/ml) it was 59%; in the test on human neutrophils [2] (10 ug/ml), 106%.
Regarding `O=C(O)c1ccccc1O` [salicylic acid], in the test with human neutrophils [1] (0.33 μg/ml, vs control cells), the “change in cellular concentration of Pro-Resolving Lipid Mediators (aggregate)” value was “small increase”. The “change in cellular concentration of all Pro-Resolving Lipid Mediator Markers in the aggregate” value was “decreased” in the test on human neutrophils [1] (3.3 μg/ml, vs control cells) and “decreased” in the test on human neutrophils [1] (33 μg/ml, vs control cells). Besides, the “change in cellular concentration of Pro-Resolving Lipid Mediator Marker 15-HETE” value in the test on human neutrophils [1] (33 μg/ml, vs control cells) was “decrease”. The “net decrease in cellular concentration of Inflammatory Metabolites and Inflammatory Metabolite Markers (aggregate)” value is recorded as 29% with human neutrophils [2] (0.33 μg/ml (first of range 0.33 to 33 μg/ml)), 58% with human neutrophils [2] (3.3 μg/ml (second of range 0.33 to 33 μg/ml)) and 46% in the test with human neutrophils [2] (33 μg/ml (third of range 0.33 to 33 μg/ml)). In addition, the “decrease in cellular concentration of 5-HETE” value in the test on human neutrophils [2] (0.33 μg/ml) was 15%; in the test with human neutrophils [2] (3.3 μg/ml), 20%; in the test with human neutrophils [2] (33 μg/ml) it was 27%. For the same molecule, the “decrease in cellular concentration of LTB4” value in the test on human neutrophils [2] (0.33 μg/ml) amounted to 1%; with human neutrophils [2] (3.3 μg/ml), 12%; in the test on human neutrophils [2] (33 μg/ml), 17%. Besides, the “decrease in cellular concentration of PGE2” value with human neutrophils [2] (0.33 μg/ml) is listed as 19%; in the test with human neutrophils [2] (3.3 μg/ml) it was 28%; with human neutrophils [2] (33 μg/ml), 19%.
Take resveratrol salicylate: the “increase in cellular concentration of Pro-Resolving Lipid Mediator Markers, in the aggregate” value in the test with human neutrophils [1] (0.43 ug/ml) is recorded as “not being as effective”; with human neutrophils [1] (4.3 ug/ml), 4%; in the test on human neutrophils [1] (43 ug/ml), 37%. Further, the “decrease in cellular concentration of Inflammatory Metabolites and Inflammation Metabolite Markers in the aggregate (better than control)” value with human neutrophils [2] (0.43 ug/ml) is reported as 87%; with human neutrophils [2] (4.3 ug/ml), 163%; with human neutrophils [2] (43 ug/ml) it was 257%.
